Results published in the supplement of paper PMC4862054.

How the values were obtained:
Assay in all cases: normalised response (% of control), CellTiter-Glo; higher = more viable cells (100 = DMSO, 0 = benzethonium chloride kill control)
Settings in all cases: incubation time: 72 h
CAL-120 = test system: CAL-120
Summary of the method: (§1)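 Breast cancer cell lines in 20 µl suspension were added to 384-well plates containing compound at 5 concentrations, spaced in 10-fold steps across a 10,000-fold range chosen for each compound, and incubated for 72 h. CellTox Green fluorescence was read at 485/520 nm, followed by CellTiter-Glo luminescence after 10 min at room temperature. Signals on each plate were normalised so that 0.1 % DMSO equals 100 and a positive kill control equals 0. Every value in the table is the normalised signal at one concentration of the series.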

DU-4475 = test system: DU-4475
Summary of the method: as §1

MFM-223 = test system: MFM-223
Summary of the method: as §1

MDA-MB-231 = test system: MDA-MB-231
Summary of the method: as §1

HCC1937 = test system: HCC1937
Summary of the method: as §1

CAL-148 = test system: CAL-148
Summary of the method: as §1

HCC1599 = test system: HCC1599
Summary of the method: as §1

MDA-MB-436 = test system: MDA-MB-436
Summary of the method: as §1

MDA-MB-468 = test system: MDA-MB-468
Summary of the method: as §1

HDQ-P1 = test system: HDQ-P1
Summary of the method: as §1

BT-474 = test system: BT-474
Summary of the method: as §1

MDA-MB-453 = test system: MDA-MB-453
Summary of the method: as §1

HCC1143 = test system: HCC1143
Summary of the method: as §1

CAL-51 = test system: CAL-51
Summary of the method: as §1

Hs578T = test system: Hs578T
Summary of the method: as §1

MCF-10A = test system: MCF-10A
Summary of the method: as §1

CAL-85-1 = test system: CAL-85-1
Summary of the method: as §1

BT-549 = test system: BT-549
Summary of the method: as §1

SK-BR-3 = test system: SK-BR-3
Summary of the method: as §1

Row | Structure (SMILES) | normalised response (CAL-120) [%] | normalised response (DU-4475) [%] | normalised response (MFM-223) [%] | normalised response (MDA-MB-231) [%] | normalised response (HCC1937) [%] | normalised response (CAL-148) [%] | normalised response (HCC1599) [%] | normalised response (MDA-MB-436) [%] | normalised response (MDA-MB-468) [%] | normalised response (HDQ-P1) [%] | normalised response (BT-474) [%] | normalised response (MDA-MB-453) [%] | normalised response (HCC1143) [%] | normalised response (CAL-51) [%] | normalised response (Hs578T) [%] | normalised response (MCF-10A) [%] | normalised response (CAL-85-1) [%] | normalised response (BT-549) [%] | normalised response (SK-BR-3) [%]
1 | COc1cc2c(cc1O)CC[C@@H]1[C@@H]2CC[C@]2(C)[C@@H](O)CC[C@@H]12 [2-methoxyestradiol] (10 nM) | 101 | 101 | 96.5 | 97.7 | 98.1 | 91.3 | 92.7 | 106 | 98.2 | 101 | 97.8 | 96.4 | 103 | 97.5 | 96.8 | 94.6 | 103 | 94 | –
2 | CC(=O)c1c(C)c2cnc(Nc3ccc(N4CCNCC4)cn3)nc2n(C2CCCC2)c1=O [Palbociclib] (10 nM) | 95.2 | 97.2 | 91.2 | 92.1 | 101 | 87 | 107 | 95.4 | 92.4 | 97.9 | 97.2 | 93.6 | 94.5 | 115 | 100 | 97.3 | 92 | 100 | 89.5
3 | Cc1ccc([N+](=O)[O-])cc1S(=O)(=O)N(C)/N=C/c1cnc2ccc(Br)cn12 [PIK-75] (1 nM) | 92.4 | 95.6 | 92.2 | 92.9 | 94.7 | 96.4 | 108 | 88.9 | 94.9 | 98.8 | 89.6 | 100 | 93.8 | 73.8 | 97.9 | 95 | 92.2 | 99 | 99.6
4 | COc1cc(F)c(F)c(Nc2ccc(I)cc2F)c1NS(=O)(=O)C1(C[C@H](O)CO)CC1 [Refametinib] (1 nM) | 101 | 104 | 94.4 | 100 | 93.6 | 101 | 99.5 | 91.6 | 92.7 | 92.8 | 91.2 | 87.9 | 93.6 | 75.2 | 92.9 | 79.4 | 97 | 98.6 | 91.2
5 | CC(=O)N(O)CCCCCNC(=O)CCC(=O)N(O)CCCCCNC(=O)CCC(=O)N(O)CCCCCN [Deferoxamine] (10 nM) | 97.4 | 92.3 | 96.9 | 91.5 | 101 | 88.3 | 110 | 96.3 | 98.2 | 105 | 94.5 | 90.2 | 102 | 87.7 | 97 | 91.4 | 93 | 106 | 99
6 | CC(=O)O[C@@]12CO[C@@H]1C[C@H](O)[C@@]1(C)C(=O)[C@H](O)C3=C(C)[C@@H](OC(=O)[C@H](O)[C@@H](NC(=O)OC(C)(C)C)c4ccccc4)C[C@@](O)([C@@H](OC(=O)c4ccccc4)[C@H]21)C3(C)C [Docetaxel] (1 nM) | 94.6 | 90.6 | 91.3 | 87.8 | 83.5 | 84.6 | 97.4 | 81.5 | 50.2 | 90 | 84.2 | 104 | 71.5 | 115 | 76.6 | 73.2 | 79.9 | 60.5 | 68.5
7 | Cn1cc(C2=Nc3cc(NC(=O)C(N)C4CCCCC4)cc4c3C2=CNNC4=O)cn1 (centres undefined) (1 nM) | 97.1 | 98.3 | 86.7 | 95 | 94.1 | 91.3 | 97.4 | 86.7 | 91.2 | 91.4 | 93.8 | 84.3 | 86.8 | 103 | 94 | 80 | 95.9 | 98.2 | 82.5
8 | COc1cc(F)c(F)c(Nc2ccc(I)cc2F)c1NS(=O)(=O)C1(C[C@H](O)CO)CC1 [Refametinib] (10 nM) | 99.5 | 92 | 87.9 | 94.4 | 97.9 | 86.9 | 109 | 90.7 | 87.2 | 89.2 | 95.5 | 101 | 95.8 | 130 | 96.5 | 58.5 | 90.7 | 96.5 | 79.6
9 | O=NN(CCCl)C(=O)NCCCl [Carmustine] (10 nM) | 98.9 | 101 | 102 | 91.9 | 101 | 93.3 | 97.9 | 98.4 | 102 | 94.8 | 93.8 | 114 | 105 | 128 | 105 | 96.6 | 95.6 | 100 | –
10 | Cc1sc2c(c1C)C(c1ccc(Cl)cc1)=N[C@@H](CC(=O)OC(C)(C)C)c1nnc(C)n1-2 [(+)JQ1] (10 nM) | 94.8 | 104 | 108 | 110 | 94.5 | 116 | 104 | 113 | 98.3 | 101 | 108 | 111 | 105 | 107 | 98.1 | 107 | 101 | 96.2 | –
11 | CC1=C2C[C@H]3[C@@H](CC=C4C[C@@H](O)CC[C@@]43C)[C@@H]2CC[C@]12O[C@@H]1C[C@H](C)CN[C@H]1[C@H]2C [Cyclopamine] (10 nM) | 102 | 109 | 113 | 105 | 104 | 117 | 116 | 105 | 110 | 105 | 104 | 109 | 105 | 110 | 105 | 114 | 98 | 95.6 | 120
12 | CC1(C)CNc2cc(NC(=O)c3cccnc3NCc3ccncc3)ccc21 [Motesanib] (10 nM) | 97.9 | 99.4 | 93.7 | 91.2 | 99.6 | 87.4 | 101 | 99.4 | 96.8 | 93.9 | 105 | 106 | 98.2 | 123 | 98.3 | 93.9 | 92.9 | 95.3 | 76.2
13 | C[C@]12CC[C@@H]3c4ccc(OC(=O)N(CCCl)CCCl)cc4CC[C@H]3[C@@H]1CC[C@@H]2O [Estramustine] (10 nM) | 103 | 91.3 | 87.7 | 95.1 | 96 | 84.1 | 103 | 93.3 | 97.6 | 104 | 97 | 88.8 | 98.5 | 90.1 | 97 | 91.1 | 91.2 | 98.6 | 94.9
14 | CC(C)(C)c1cnc(CSc2cnc(NC(=O)C3CCNCC3)s2)o1 [SNS-032] (10 nM) | 96.6 | 99.2 | 97.2 | 96.5 | 97.8 | 98.5 | 107 | 101 | 96.7 | 92.1 | 93.4 | 99.6 | 89.7 | 65.3 | 102 | 105 | 109 | 95.1 | 95.8
15 | CC(=O)N(O)CCCCCNC(=O)CCC(=O)N(O)CCCCCNC(=O)CCC(=O)N(O)CCCCCN [Deferoxamine] (1 nM) | 106 | 95.6 | 94.7 | 91.8 | 93.7 | 91.9 | 120 | 101 | 91 | 105 | 94.6 | 94.8 | 95.1 | 108 | 100 | 99.2 | 93.2 | 104 | 94.8
16 | CC(=O)c1c(C)c2cnc(Nc3ccc(N4CCNCC4)cn3)nc2n(C2CCCC2)c1=O [Palbociclib] (1 nM) | 95 | 97.8 | 90.3 | 91.6 | 101 | 88.4 | 96.1 | 101 | 91.9 | 90.1 | 89.6 | 99.2 | 88 | 118 | 95.7 | 89.3 | 97.8 | 100 | 86
17 | Nc1nc2[nH]cnc2c(=S)[nH]1 [Thioguanine] (10 nM) | 100 | 98.5 | 97.2 | 98.2 | 96.9 | 105 | 112 | 98.8 | 99.5 | 94.6 | 93.8 | 87.4 | 101 | 85.1 | 102 | 98.7 | 99.4 | – | –
18 | C[C@]12CC[C@@H]3c4ccc(OC(=O)N(CCCl)CCCl)cc4CC[C@H]3[C@@H]1CC[C@@H]2O [Estramustine] (1 nM) | 97.6 | 89.3 | 88 | 94.7 | 93.1 | 80.3 | 109 | 106 | 88.2 | 100 | 95.3 | 94.6 | 96.4 | 118 | 95.5 | 86.5 | 95 | 97 | 90
19 | Cc1ccc([N+](=O)[O-])cc1S(=O)(=O)N(C)/N=C/c1cnc2ccc(Br)cn12 [PIK-75] (10 nM) | 86.8 | 97 | 92.7 | 88.9 | 90.3 | 90.3 | 96.9 | 99.1 | 82.2 | 95.5 | 83.5 | 79.2 | 90.2 | 79.1 | 91.5 | 108 | 89.3 | 101 | 74.4
20 | CC1(C)CCC(CN2CCN(c3ccc(C(=O)NS(=O)(=O)c4ccc(NCC5CCOCC5)c([N+](=O)[O-])c4)c(Oc4cnc5[nH]ccc5c4)c3)CC2)=C(c2ccc(Cl)cc2)C1 [ABT-199] (10 nM) | 91.8 | 96.2 | 100 | 97.2 | 99.7 | 103 | 104 | 102 | 118 | 97.1 | 97.3 | 97.5 | 99.2 | 68.3 | 103 | 101 | 106 | 95.7 | –
